Reference: ChEMBL document CHEMBL1126464, “Carbamate series of juvenoids” (Bioorg Med Chem Lett, 1992)

Columns and labels:
Dysdercus cingulatus = experiment: Effective dose that causes 50 % inhibition of Dysdercus cingulatus (DYS) was determined.; format: functional
Galleria mellonella = experiment: Effective dose that causes 50 % inhibition of Galleria mellonella (GAL) was determined.; format: functional
Acyrthosiphon pisum = experiment: Concentration required for 50% inhibition of acyrthosiphon pisum (ACY) was expressed as percent of active ingredient.; format: functional, organism-based

IC50 (Acyrthosiphon pisum) | Compound | ED50 (Dysdercus cingulatus) | ED50 (Galleria mellonella)
0.05% | CCOC(=O)NCCOc1ccc(CC2CCCCC2=O)cc1 (stereo not given) | 8 µg/kg | 0.2 µg/kg
> 0.1% | CCOC(=O)NCCOc1ccc(C[C@@H]2CCCC[C@@H]2O)cc1 | 1 µg/kg | 0.8 µg/kg
> 0.1% | CCOC(=O)NCCOc1ccc(C[C@H]2CCCC[C@@H]2O)cc1 | 40 µg/kg | 0.8 µg/kg
0.005% | CCOC(=O)NCCOc1ccc(CC2CCCCC23OCCO3)cc1 (stereo not given) | 80 µg/kg | 0.8 µg/kg

Compound | IC50 (Acyrthosiphon pisum) | ED50 (Dysdercus cingulatus) | ED50 (Galleria mellonella)
CCOC(=O)/C=C(C)/C=C/CC(C)CCCC(C)C (stereo not given) [HYDROPRENE] | 0.04% | 1000 µg/kg | 10 µg/kg
